Assay results as given in patent US20140329912A1, “CONTRACEPTIVE COMPOSITIONS AND METHODS OF CONTRACEPTION” (INTEGRITY PHARMACEUTICALS, LLC, priority 2011, published 2014).

Legend:
Sperms [1] = assay: Real-Time PCR Stress and Toxicity PathwayFinder RT2 Profiler array on treated sperm; type: cell-based, mice; conditions: 50 ppm
Procedure: (§1) Male BALB/c mice (12-16 week old) were euthanized by CO2-inhalation. The cauda epididymes was clipped and the upper portions of the vas deferens freed from surrounding tissue. Three-four cuts were made using scissors and forceps across the epididymes and several cuts along the length of the vas deferens. Sperm were allowed to swim out of the tissue. The dish was placed in a 5% CO2 incubator set at 37° C. for 10-15 minutes. The solution of sperm was diluted (50 μl sperm+450 μl complete medium) in Whittens/HCO3/BSA. Sperm was removed from the very top or sides of sperm drop to obtain the sperm with highest motility. The dish was then returned to the 5% CO2 incubator set at 37° C. to allow the sperm to capacitate for 1-3 hrs prior to use.
Sperms (10^4) were placed in 96-well plate in complete media and treated with n-propyl bromide (50 ppm) or phosphate buffered saline (control) and incubated for 10 minutes in a 5% CO2 incubator set at 37° C. The dish with sperm was then washed 3-times with phosphate buffered saline and returned to the 5% CO2 incubator set at 37° C. for a further 24 hours. Sperm were then collected by centrifugation and subjected to the Stress and Toxicity PathwayFinder™ RT^2 Profiler™ assay according to the manufacturer's instructions (SA Biosciences, Frederick, Md.). This PCR Array profiles the expression of 84 genes whose expression level is indicative of stress and toxicity. […] The array also includes genes representative of pathways activated by prolonged stress, which range from cell death by apoptosis or necrosis to growth arrest and senescence to proliferation and carcinogenesis.

Sperms [2] = assay: Toxicity screening: cell viability by MTS assay; type: cell-based, mice; conditions: for Average absorbance of cell-reduced MTS at 490 nm: average of trials 1-3; for Corrected average absorbance of cell-reduced MTS at 490 nm: culture media background subtracted
Procedure: as §1
In addition, cell viability with n-propyl bromide was measured by MTS assay (Promega, Madison, Wis.). MTS [3-(4,5-dimethylthiazol-2-yl)-5-(3-carboxymethoxyphenyl)-2-(4-sulfophenyl)-2H-tetrazolium, inner salt] was utilized according to the manufacturer's instructions. The culture growth medium consisted of Whittens-HEPES complete media, (pH 7.2-7.4) prepared and supplemented with 30 mM NaHCO3 and 10 mg/mL BSA (Bovine Serum Albumin, Sigma A0281, fatty acid free). 250 mL of Whittens-Hepes complete media includes 1461 mg of NaCl, 87.6 mg of KCl, 40.8 mg of KH2PO4, 36.1 mg of MgSO4, 247.8 mg of glucose (dextrose), 22.01 mg of pyruvic acid, 130.92 mg of lactic acid (hemi-Ca), and 1191.5 mg of HEPES. After treatments of the sperms, 30 μL of MTS solution was added to each well and pipetted up and down for ten times to ensure properly mixing and incubation was prolonged for 2 h at 37° C., 5% CO2.
Absorbance observations for trials 1-3 and calculated average are expressed as optical density. The absorbance of cell-reduced MTS was read at 490 nm on a spectrophotometer Spectra Max Plus 384, and optical density for absorbance readings is provided in Table II. Absorbance is directly proportional to the number of living cells in culture. Thus, a reduction in absorbance normalized to a control indicates toxicity to a cell. Background absorbance was measured for the culture media only in three trials. An average absorbance was calculated from the three trials. The average optical density for the three trials for the culture media (background) was then subtracted from the average optical density of the various concentration assays for n-propyl bromide (expressed in terms of ppm of n-propyl bromide). Three control trials using only phosphate buffered saline were also measured. The corrected, average optical density of each of the experimental assays was then compared to the corrected, average optical density of the control (PBS only) assays. The comparison is expressed as the percentage of MTS reduction relative to the normalized absorbance of control samples.

Question: What does the source list for CCCBr [n-propyl bromide, 1-bromopropane]?
Answer: cell death, necrosis, mutigencity, or DNA damage (PCR array, Table I) (Sperms [1]; a two-fold or greater change might be significant): no significant cell death, necrosis, mutigencity, or DNA damage was observed; Fold Change, gene APFA1 (Apoptotic peptidase activating factor 1) (Sperms [1]; APFA1, NM_001160, Apoptosis and Senescence, 10 minutes, washed, further 24 hours): −1.04 fold; Fold Change, gene ATM (Ataxia telangiectasia mutated) (Sperms [1]; ATM, NM_00051, Cell Cycle Control and DNA Damage Repair, 10 minutes, washed, further 24 hours): −1.01 fold; Fold Change, gene BAD (BCL2 associated agonist of cell death) (Sperms [1]; BAD, NM_004322, Apoptosis and Senescence, 10 minutes, washed, further 24 hours): −1.00 fold; Fold Change, gene BAX (BCL2 associated X protein) (Sperms [1]; BAX, NM_004324, Apoptosis and Senescence, 10 minutes, washed, further 24 hours): −1.25 fold; Fold Change, gene BCL2 (B-cell CLL/lymphoma 2) (Sperms [1]; BCL2, NM_000633, Apoptosis and Senescence, 10 minutes, washed, further 24 hours): −1.24 fold; Fold Change, gene BCL2L1 (BCL2-like 1) (Sperms [1]; BCL2L1, NM_138578, Apoptosis and Senescence, 10 minutes, washed, further 24 hours): −1.06 fold; Fold Change, gene BRCA1 (Breast cancer1, early onset) (Sperms [1]; BRCA1, NM_007294, Cell Cycle Control and DNA Damage Repair, 10 minutes, washed, further 24 hours): −1.23 fold; Fold Change, gene CASP8 (Caspase 8, apoptosis related cysteine peptidase) (Sperms [1]; CASP8, NM_001228, Apoptosis and Senescence, 10 minutes, washed, further 24 hours): −1.57 fold; Fold Change, gene CCNE1 (Cyclin E1) (Sperms [1]; CCNE1, NM_001238, Cell Cycle Control and DNA Damage Repair, 10 minutes, washed, further 24 hours): −1.06 fold; Fold Change, gene CDC25A (Cell division cycle 25, homolog A) (Sperms [1]; CDC25A, NM_001789, Cell Cycle Control and DNA Damage Repair, 10 minutes, washed, further 24 hours): −1.04 fold; Fold Change, gene CDK4 (Cyclin-dependent kinase 4) (Sperms [1]; CDK4, NM_000075, Cell Cycle Control and DNA Damage Repair, 10 minutes, washed, further 24 hours): −1.04 fold; Fold Change, gene CDKN2A (Cyclin dependent kinase inhibitor 2A) (Sperms [1]; CDKN2A, NM_000077, Cell Cycle Control and DNA Damage Repair, 10 minutes, washed, further 24 hours): −1.05 fold; Fold Change, gene CDKNA1 (Cyclin dependent kinase inhibitor 1A) (Sperms [1]; CDKNA1, NM_000389, Cell Cycle Control and DNA Damage Repair, 10 minutes, washed, further 24 hours): −1.25 fold; Fold Change, gene CFLAR (CASP8 & FADD like apoptosis regulator) (Sperms [1]; CFLAR, NM_003879, Apoptosis and Senescence, 10 minutes, washed, further 24 hours): −1.11 fold; Fold Change, gene CHEK2 (CHk2, Checkpoint homolog) (Sperms [1]; CHEK2, NM_007194, Cell Cycle Control and DNA Damage Repair, 10 minutes, washed, further 24 hours): −1.02 fold; Fold Change, gene E2F1 (E2F transcription factor 1) (Sperms [1]; E2F1, NM_005225, Cell Cycle Control and DNA Damage Repair, 10 minutes, washed, further 24 hours): −1.17 fold; Fold Change, gene GZMA (Granzyme A) (Sperms [1]; GZMA, NM_006144, Apoptosis and Senescence, 10 minutes, washed, further 24 hours): −1.26 fold; Fold Change, gene HTATIP2 (HIV-1 tat interactive protein 2) (Sperms [1]; HTATIP2, NM_006410, Apoptosis and Senescence, 10 minutes, washed, further 24 hours): −1.38 fold; Fold Change, gene MDM2 (MDM2 p53 binding protein homolog) (Sperms [1]; MDM2, NM_002392, Cell Cycle Control and DNA Damage Repair, 10 minutes, washed, further 24 hours): −1.32 fold; Fold Change, gene RB1 (Retinoblastoma 1) (Sperms [1]; RB1, NM_000321, Cell Cycle Control and DNA Damage Repair, 10 minutes, washed, further 24 hours): −1.30 fold; Fold Change, gene S100A4 (S100 calcium binding protein A4) (Sperms [1]; S100A4, NM_002961, Cell Cycle Control and DNA Damage Repair, 10 minutes, washed, further 24 hours): −1.15 fold; Fold Change, gene TERT (Telomerase reverse transcriptase) (Sperms [1]; TERT, NM_198253, Apoptosis and Senescence, 10 minutes, washed, further 24 hours): −1.16 fold; Fold Change, gene TNFRS1A (Tumor necrosis factor receptor super family member 1A) (Sperms [1]; TNFRS1A, NM_001065, Apoptosis and Senescence, 10 minutes, washed, further 24 hours): −1.36 fold; Fold Change, gene TNFRSF10B (Tumor necrosis factor receptor super family member 10b) (Sperms [1]; TNFRSF10B, NM_003842, Apoptosis and Senescence, 10 minutes, washed, further 24 hours): −1.33 fold; Fold Change, gene TNFRSF25 (Tumor necrosis factor receptor super family member 25) (Sperms [1]; TNFRSF25, NM_003790, Apoptosis and Senescence, 10 minutes, washed, further 24 hours): −1.15 fold; Fold Change, gene TP53 (Tumor protein p53) (Sperms [1]; TP53, NM_000546, Cell Cycle Control and DNA Damage Repair, 10 minutes, washed, further 24 hours): −1.06 fold; % of control (MTS reduction relative to PBS only control) (Sperms [2]; 0.1 ppm): 90%; Absorbance of cell-reduced MTS at 490 nm, Trial 1 (Sperms [2]; 0.1 ppm): 0.2 optical density; Absorbance of cell-reduced MTS at 490 nm, Trial 2 (Sperms [2]; 0.1 ppm): 0.1 optical density; Absorbance of cell-reduced MTS at 490 nm, Trial 3 (Sperms [2]; 0.1 ppm): 0.3 optical density; Average absorbance of cell-reduced MTS at 490 nm (Sperms [2]; 0.1 ppm): 0.2 optical density; Corrected average absorbance of cell-reduced MTS at 490 nm (Sperms [2]; 0.1 ppm): 0.0 optical density; % of control (MTS reduction relative to PBS only control) (Sperms [2]; 1 ppm): 100%; Absorbance of cell-reduced MTS at 490 nm, Trial 1 (Sperms [2]; 1 ppm): 0.2 optical density; Absorbance of cell-reduced MTS at 490 nm, Trial 2 (Sperms [2]; 1 ppm): 0.4 optical density; Absorbance of cell-reduced MTS at 490 nm, Trial 3 (Sperms [2]; 1 ppm): 0.1 optical density; Average absorbance of cell-reduced MTS at 490 nm (Sperms [2]; 1 ppm): 0.2 optical density; Corrected average absorbance of cell-reduced MTS at 490 nm (Sperms [2]; 1 ppm): 0.1 optical density; % of control (MTS reduction relative to PBS only control) (Sperms [2]; 5 ppm): 100%; Absorbance of cell-reduced MTS at 490 nm, Trial 1 (Sperms [2]; 5 ppm): 0.2 optical density; Absorbance of cell-reduced MTS at 490 nm, Trial 2 (Sperms [2]; 5 ppm): 0.3 optical density; Absorbance of cell-reduced MTS at 490 nm, Trial 3 (Sperms [2]; 5 ppm): 0.4 optical density; Average absorbance of cell-reduced MTS at 490 nm (Sperms [2]; 5 ppm): 0.3 optical density; Corrected average absorbance of cell-reduced MTS at 490 nm (Sperms [2]; 5 ppm): 0.1 optical density; % of control (MTS reduction relative to PBS only control) (Sperms [2]; 12.5 ppm): 100%; Absorbance of cell-reduced MTS at 490 nm, Trial 1 (Sperms [2]; 12.5 ppm): 0.4 optical density; Absorbance of cell-reduced MTS at 490 nm, Trial 2 (Sperms [2]; 12.5 ppm): 0.4 optical density; Absorbance of cell-reduced MTS at 490 nm, Trial 3 (Sperms [2]; 12.5 ppm): 0.1 optical density; Average absorbance of cell-reduced MTS at 490 nm (Sperms [2]; 12.5 ppm): 0.3 optical density; Corrected average absorbance of cell-reduced MTS at 490 nm (Sperms [2]; 12.5 ppm): 0.1 optical density; % of control (MTS reduction relative to PBS only control) (Sperms [2]; 25 ppm): 100%; Absorbance of cell-reduced MTS at 490 nm, Trial 1 (Sperms [2]; 25 ppm): 0.3 optical density; Absorbance of cell-reduced MTS at 490 nm, Trial 2 (Sperms [2]; 25 ppm): 0.4 optical density; Absorbance of cell-reduced MTS at 490 nm, Trial 3 (Sperms [2]; 25 ppm): 0.2 optical density; Average absorbance of cell-reduced MTS at 490 nm (Sperms [2]; 25 ppm): 0.3 optical density; Corrected average absorbance of cell-reduced MTS at 490 nm (Sperms [2]; 25 ppm): 0.1 optical density; % of control (MTS reduction relative to PBS only control) (Sperms [2]; 50 ppm): 100%; Absorbance of cell-reduced MTS at 490 nm, Trial 1 (Sperms [2]; 50 ppm): 0.2 optical density; Absorbance of cell-reduced MTS at 490 nm, Trial 2 (Sperms [2]; 50 ppm): 0.5 optical density; Absorbance of cell-reduced MTS at 490 nm, Trial 3 (Sperms [2]; 50 ppm): 0.1 optical density; Average absorbance of cell-reduced MTS at 490 nm (Sperms [2]; 50 ppm): 0.3 optical density; Corrected average absorbance of cell-reduced MTS at 490 nm (Sperms [2]; 50 ppm): 0.1 optical density; % of control (MTS reduction relative to PBS only control) (Sperms [2]; 100 ppm): 400%; Absorbance of cell-reduced MTS at 490 nm, Trial 1 (Sperms [2]; 100 ppm): 0.4 optical density; Absorbance of cell-reduced MTS at 490 nm, Trial 2 (Sperms [2]; 100 ppm): 0.6 optical density; Absorbance of cell-reduced MTS at 490 nm, Trial 3 (Sperms [2]; 100 ppm): 0.7 optical density; Average absorbance of cell-reduced MTS at 490 nm (Sperms [2]; 100 ppm): 0.6 optical density; Corrected average absorbance of cell-reduced MTS at 490 nm (Sperms [2]; 100 ppm): 0.4 optical density; % of control (MTS reduction relative to PBS only control) (Sperms [2]; 200 ppm): 600%; Absorbance of cell-reduced MTS at 490 nm, Trial 1 (Sperms [2]; 200 ppm): 0.8 optical density; Absorbance of cell-reduced MTS at 490 nm, Trial 2 (Sperms [2]; 200 ppm): 0.9 optical density; Absorbance of cell-reduced MTS at 490 nm, Trial 3 (Sperms [2]; 200 ppm): 0.7 optical density; Average absorbance of cell-reduced MTS at 490 nm (Sperms [2]; 200 ppm): 0.8 optical density; Corrected average absorbance of cell-reduced MTS at 490 nm (Sperms [2]; 200 ppm): 0.6 optical density; % of control (MTS reduction relative to PBS only control) (Sperms [2]; 600 ppm): 900%; Absorbance of cell-reduced MTS at 490 nm, Trial 1 (Sperms [2]; 600 ppm): 1.2 optical density; Absorbance of cell-reduced MTS at 490 nm, Trial 2 (Sperms [2]; 600 ppm): 1.1 optical density; Absorbance of cell-reduced MTS at 490 nm, Trial 3 (Sperms [2]; 600 ppm): 0.9 optical density; Average absorbance of cell-reduced MTS at 490 nm (Sperms [2]; 600 ppm): 1.1 optical density; Corrected average absorbance of cell-reduced MTS at 490 nm (Sperms [2]; 600 ppm): 0.9 optical density; cell toxicity (MTS assay, Table II) (Sperms [2]; at concentrations of 50 ppm or less): does not result in significant cell toxicity
